Results taken from the kinase profiling compilation of Christmann-Franck et al. (2016).

What was measured:
Assay in all cases: KINOMEscan competition binding
Conditions in all cases: compound 10.0 µM
PLK2 (human) = PLK2 (human) (UniProt Q9NYY3)
CDC42BPG (human) = CDC42BPG (human) (UniProt Q6DT37)
[1] = system: ABL1 (human), P00519 [T315I]
RIOK1 (human) = RIOK1 (human) (UniProt Q9BRS2)
IGF1R (human) = IGF1R (human) (UniProt P08069)
PRKAA1 (human) = PRKAA1 (human) (UniProt Q13131)
DCLK3 (human) = DCLK3 (human) (UniProt Q9C098)
LATS2 (human) = LATS2 (human) (UniProt Q9NRM7)
BRSK2 (human) = BRSK2 (human) (UniProt Q8IWQ3)
[2] = system: BRAF (human), P15056 [V600E]
CAMKK1 (human) = CAMKK1 (human) (UniProt Q8N5S9)
Sequence of CAMKK1 (human) (Q8N5S9 whole entry, looked up): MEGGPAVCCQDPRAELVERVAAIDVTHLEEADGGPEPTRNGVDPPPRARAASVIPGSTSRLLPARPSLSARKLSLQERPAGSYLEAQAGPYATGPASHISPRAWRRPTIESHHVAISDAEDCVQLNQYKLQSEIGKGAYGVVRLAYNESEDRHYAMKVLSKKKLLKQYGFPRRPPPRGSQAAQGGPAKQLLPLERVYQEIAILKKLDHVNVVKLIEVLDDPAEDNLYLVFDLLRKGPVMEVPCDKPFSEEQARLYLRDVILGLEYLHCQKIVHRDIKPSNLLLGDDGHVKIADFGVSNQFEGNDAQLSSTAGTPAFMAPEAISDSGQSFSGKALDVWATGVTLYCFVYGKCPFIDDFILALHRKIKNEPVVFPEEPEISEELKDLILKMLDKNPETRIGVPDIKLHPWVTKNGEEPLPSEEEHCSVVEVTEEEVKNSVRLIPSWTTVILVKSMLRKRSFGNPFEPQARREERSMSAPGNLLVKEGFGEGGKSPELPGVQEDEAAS

TBK1 (human) = TBK1 (human) (UniProt Q9UHD2)
Sequence of TBK1 (human) (Q9UHD2 whole entry, looked up): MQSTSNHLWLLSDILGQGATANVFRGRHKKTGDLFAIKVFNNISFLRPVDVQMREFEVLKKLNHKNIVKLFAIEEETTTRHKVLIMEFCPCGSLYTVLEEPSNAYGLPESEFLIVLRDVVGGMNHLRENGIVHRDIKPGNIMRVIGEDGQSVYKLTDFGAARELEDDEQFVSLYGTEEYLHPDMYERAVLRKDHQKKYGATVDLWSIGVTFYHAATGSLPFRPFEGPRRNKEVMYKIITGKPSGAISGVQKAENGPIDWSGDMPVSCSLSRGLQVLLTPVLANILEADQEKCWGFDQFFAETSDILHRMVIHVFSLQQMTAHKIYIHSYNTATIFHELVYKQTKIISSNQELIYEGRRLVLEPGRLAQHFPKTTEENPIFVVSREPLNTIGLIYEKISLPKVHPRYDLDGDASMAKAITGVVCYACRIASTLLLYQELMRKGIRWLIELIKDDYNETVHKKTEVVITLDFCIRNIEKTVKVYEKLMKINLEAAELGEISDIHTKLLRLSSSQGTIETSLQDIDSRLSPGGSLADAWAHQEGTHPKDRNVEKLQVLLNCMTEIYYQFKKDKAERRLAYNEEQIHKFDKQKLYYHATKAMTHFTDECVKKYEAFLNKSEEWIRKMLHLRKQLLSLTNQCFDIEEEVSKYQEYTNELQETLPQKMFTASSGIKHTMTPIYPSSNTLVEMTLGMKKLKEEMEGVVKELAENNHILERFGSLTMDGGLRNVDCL

GRK7 (human) = GRK7 (human) (UniProt Q8WTQ7)
Sequence of GRK7 (human) (Q8WTQ7 whole entry, looked up): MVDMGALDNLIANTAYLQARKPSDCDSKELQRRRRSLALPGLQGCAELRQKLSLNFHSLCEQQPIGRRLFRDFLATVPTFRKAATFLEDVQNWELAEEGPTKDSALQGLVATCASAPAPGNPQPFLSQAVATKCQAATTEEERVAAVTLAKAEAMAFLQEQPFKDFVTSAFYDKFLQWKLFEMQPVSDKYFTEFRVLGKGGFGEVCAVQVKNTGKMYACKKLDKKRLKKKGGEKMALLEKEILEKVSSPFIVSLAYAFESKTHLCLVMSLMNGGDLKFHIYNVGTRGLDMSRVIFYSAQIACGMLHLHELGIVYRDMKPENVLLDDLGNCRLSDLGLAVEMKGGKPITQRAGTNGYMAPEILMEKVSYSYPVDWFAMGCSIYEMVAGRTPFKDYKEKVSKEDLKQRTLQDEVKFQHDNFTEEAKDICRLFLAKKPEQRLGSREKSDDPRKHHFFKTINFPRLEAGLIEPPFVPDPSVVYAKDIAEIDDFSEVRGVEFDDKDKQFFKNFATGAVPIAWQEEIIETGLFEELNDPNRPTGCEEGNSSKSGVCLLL

BMP2K (human) = BMP2K (human) (UniProt Q9NSY1)
TESK1 (human) = TESK1 (human) (UniProt Q15569)
Sequence of TESK1 (human) (Q15569 whole entry, looked up): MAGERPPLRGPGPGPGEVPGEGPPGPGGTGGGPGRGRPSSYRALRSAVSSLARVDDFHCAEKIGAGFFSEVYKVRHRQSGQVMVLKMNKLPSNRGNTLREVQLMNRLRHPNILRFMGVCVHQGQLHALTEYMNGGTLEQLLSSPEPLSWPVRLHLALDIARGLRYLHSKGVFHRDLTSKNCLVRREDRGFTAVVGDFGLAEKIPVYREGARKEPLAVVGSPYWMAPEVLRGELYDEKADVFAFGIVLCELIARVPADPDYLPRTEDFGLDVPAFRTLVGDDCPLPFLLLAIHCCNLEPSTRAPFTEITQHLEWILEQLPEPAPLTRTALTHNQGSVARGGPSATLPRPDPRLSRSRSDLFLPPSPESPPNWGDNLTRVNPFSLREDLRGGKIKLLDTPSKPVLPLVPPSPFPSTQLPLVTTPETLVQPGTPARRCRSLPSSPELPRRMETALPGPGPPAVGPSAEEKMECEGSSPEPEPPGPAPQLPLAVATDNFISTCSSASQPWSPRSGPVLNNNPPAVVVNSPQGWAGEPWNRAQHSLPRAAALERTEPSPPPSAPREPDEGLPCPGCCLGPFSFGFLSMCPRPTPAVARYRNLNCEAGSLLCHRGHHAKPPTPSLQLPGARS

MKNK1 (human) = MKNK1 (human) (UniProt Q9BUB5)
LCK (human) = LCK (human) (UniProt P06239)
MARK4 (human) = MARK4 (human) (UniProt Q96L34)
ACVR1 (human) = ACVR1 (human) (UniProt Q04771)
[3] = system: FLT3 (human), P36888 [D835H]
MAP2K2 (human) = MAP2K2 (human) (UniProt P36507)
MST1R (human) = MST1R (human) (UniProt Q04912)
AKT2 (human) = AKT2 (human) (UniProt P31751)
PKMYT1 (human) = PKMYT1 (human) (UniProt Q99640)
ITK (human) = ITK (human) (UniProt Q08881)
PLK3 (human) = PLK3 (human) (UniProt Q9H4B4)
PRKCH (human) = PRKCH (human) (UniProt P24723)
CDK3 (human) = CDK3 (human) (UniProt Q00526)
Sequence of CDK3 (human) (Q00526 whole entry, looked up): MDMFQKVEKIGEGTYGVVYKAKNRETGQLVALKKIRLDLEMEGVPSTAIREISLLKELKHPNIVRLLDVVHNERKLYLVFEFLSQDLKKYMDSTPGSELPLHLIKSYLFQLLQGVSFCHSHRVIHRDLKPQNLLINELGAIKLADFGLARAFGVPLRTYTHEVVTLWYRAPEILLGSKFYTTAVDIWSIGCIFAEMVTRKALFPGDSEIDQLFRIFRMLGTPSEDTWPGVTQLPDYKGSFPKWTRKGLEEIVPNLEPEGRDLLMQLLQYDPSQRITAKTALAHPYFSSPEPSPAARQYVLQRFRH

MYO3A (human) = MYO3A (human) (UniProt Q8NEV4)
GAK (human) = GAK (human) (UniProt O14976)
ROCK2 (human) = ROCK2 (human) (UniProt O75116)
[4] = system: ABL1 (human), P00519 [F317I]
MAPK6 (human) = MAPK6 (human) (UniProt Q16659)
AAK1 (human) = AAK1 (human) (UniProt Q2M2I8)
SIK2 (human) = SIK2 (human) (UniProt Q9H0K1)
Sequence of SIK2 (human) (Q9H0K1 whole entry, looked up): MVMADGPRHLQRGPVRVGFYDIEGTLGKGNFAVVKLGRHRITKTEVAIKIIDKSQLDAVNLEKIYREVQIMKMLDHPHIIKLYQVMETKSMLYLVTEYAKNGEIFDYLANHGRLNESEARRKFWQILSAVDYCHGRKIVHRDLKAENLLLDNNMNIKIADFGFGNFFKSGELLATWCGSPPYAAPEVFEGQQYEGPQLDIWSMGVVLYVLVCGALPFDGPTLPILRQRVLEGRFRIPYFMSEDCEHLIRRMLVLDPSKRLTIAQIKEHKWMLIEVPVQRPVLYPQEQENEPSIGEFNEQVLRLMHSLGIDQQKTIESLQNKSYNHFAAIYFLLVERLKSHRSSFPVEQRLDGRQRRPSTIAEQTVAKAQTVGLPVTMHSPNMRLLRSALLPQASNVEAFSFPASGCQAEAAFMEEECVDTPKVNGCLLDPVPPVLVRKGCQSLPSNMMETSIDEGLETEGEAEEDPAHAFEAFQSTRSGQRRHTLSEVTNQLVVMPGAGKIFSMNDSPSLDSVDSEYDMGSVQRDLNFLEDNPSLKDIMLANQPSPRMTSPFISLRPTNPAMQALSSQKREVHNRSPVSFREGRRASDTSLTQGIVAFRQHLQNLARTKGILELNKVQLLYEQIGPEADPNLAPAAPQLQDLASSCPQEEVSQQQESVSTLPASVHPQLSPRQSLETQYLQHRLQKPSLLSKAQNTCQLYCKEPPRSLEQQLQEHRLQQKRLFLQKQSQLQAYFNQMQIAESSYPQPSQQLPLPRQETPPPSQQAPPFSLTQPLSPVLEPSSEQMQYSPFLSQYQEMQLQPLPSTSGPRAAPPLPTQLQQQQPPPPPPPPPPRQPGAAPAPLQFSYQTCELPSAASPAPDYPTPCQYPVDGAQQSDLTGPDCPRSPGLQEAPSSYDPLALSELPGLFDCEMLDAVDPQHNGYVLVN

CDC2L2 (human) = CDC2L2 (human) (UniProt Q9UQ88)
IRAK3 (human) = IRAK3 (human) (UniProt Q9Y616)
CDK2 (human) = CDK2 (human) (UniProt P24941)
RIPK2 (human) = RIPK2 (human) (UniProt O43353)
MAPKAPK5 (human) = MAPKAPK5 (human) (UniProt Q8IW41)
PHKG2 (human) = PHKG2 (human) (UniProt P15735)
IKBKE (human) = IKBKE (human) (UniProt Q14164)

Sequence of PRKAA1 (human) (Q13131 whole entry, looked up): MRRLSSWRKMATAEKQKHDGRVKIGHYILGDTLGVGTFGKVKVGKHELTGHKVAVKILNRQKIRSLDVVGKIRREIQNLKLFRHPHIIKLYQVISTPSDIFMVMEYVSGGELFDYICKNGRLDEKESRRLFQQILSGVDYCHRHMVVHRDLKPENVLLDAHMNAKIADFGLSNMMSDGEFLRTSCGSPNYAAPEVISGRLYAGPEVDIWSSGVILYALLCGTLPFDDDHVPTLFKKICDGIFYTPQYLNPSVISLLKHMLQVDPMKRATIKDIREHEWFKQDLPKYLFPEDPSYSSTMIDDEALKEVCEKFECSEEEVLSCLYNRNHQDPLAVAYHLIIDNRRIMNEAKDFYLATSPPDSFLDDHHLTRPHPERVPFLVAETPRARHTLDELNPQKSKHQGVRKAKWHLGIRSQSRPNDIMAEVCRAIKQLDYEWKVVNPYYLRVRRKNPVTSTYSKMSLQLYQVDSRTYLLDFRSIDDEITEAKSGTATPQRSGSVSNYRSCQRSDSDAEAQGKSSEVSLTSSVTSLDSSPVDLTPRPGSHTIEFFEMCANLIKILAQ
Sequence of PLK2 (human) (Q9NYY3 whole entry, looked up): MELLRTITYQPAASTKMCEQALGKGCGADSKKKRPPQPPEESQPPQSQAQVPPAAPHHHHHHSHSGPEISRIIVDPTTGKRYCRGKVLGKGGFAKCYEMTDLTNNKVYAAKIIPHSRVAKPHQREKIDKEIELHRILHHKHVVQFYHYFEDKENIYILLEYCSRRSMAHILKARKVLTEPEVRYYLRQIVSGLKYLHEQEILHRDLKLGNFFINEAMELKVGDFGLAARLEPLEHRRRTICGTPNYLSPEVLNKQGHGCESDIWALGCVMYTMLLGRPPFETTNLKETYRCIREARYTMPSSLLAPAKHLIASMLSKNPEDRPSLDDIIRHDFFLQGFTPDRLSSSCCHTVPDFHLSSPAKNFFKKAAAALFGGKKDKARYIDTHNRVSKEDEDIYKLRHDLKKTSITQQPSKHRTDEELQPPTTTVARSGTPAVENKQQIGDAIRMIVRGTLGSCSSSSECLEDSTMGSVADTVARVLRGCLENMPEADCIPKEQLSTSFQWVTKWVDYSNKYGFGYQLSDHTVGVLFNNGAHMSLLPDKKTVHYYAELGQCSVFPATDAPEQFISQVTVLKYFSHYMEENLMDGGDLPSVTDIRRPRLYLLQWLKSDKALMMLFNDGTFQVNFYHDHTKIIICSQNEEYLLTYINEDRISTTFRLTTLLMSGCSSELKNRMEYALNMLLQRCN

For O=C1Nc2cc(Br)ccc2/C1=C1/Nc2ccccc2/C1=N\O, the kinase still bound, per cent of control (PLK2 (human)) was 87%, the kinase still bound, per cent of control (CDC42BPG (human)) was 80% and the kinase still bound, per cent of control [1] was 0.65%. The kinase still bound, per cent of control (RIOK1 (human)) was 5.1%, the kinase still bound, per cent of control (IGF1R (human)) was 83% and the kinase still bound, per cent of control (PRKAA1 (human)) was 4%. The kinase still bound, per cent of control (DCLK3 (human)) was 8%, the kinase still bound, per cent of control (LATS2 (human)) was 60% and the kinase still bound, per cent of control (BRSK2 (human)) was 1.1%. It also gave a kinase still bound, per cent of control [2] of 84%, a kinase still bound, per cent of control (CAMKK1 (human)) of 4.8% and a kinase still bound, per cent of control (TBK1 (human)) of 32%. For the same molecule, the kinase still bound, per cent of control (GRK7 (human)) was 58%, the kinase still bound, per cent of control (BMP2K (human)) was 0.65% and the kinase still bound, per cent of control (TESK1 (human)) was 67%. The kinase still bound, per cent of control (MKNK1 (human)) was 51%, the kinase still bound, per cent of control (LCK (human)) was 4.8% and the kinase still bound, per cent of control (MARK4 (human)) was 35%. It also gave a kinase still bound, per cent of control (ACVR1 (human)) of 32%, a kinase still bound, per cent of control [3] of 1.8% and a kinase still bound, per cent of control (MAP2K2 (human)) of 26%. For the same molecule, the kinase still bound, per cent of control (MST1R (human)) was 100%, the kinase still bound, per cent of control (AKT2 (human)) was 100% and the kinase still bound, per cent of control (PKMYT1 (human)) was 90%. It also gave a kinase still bound, per cent of control (ITK (human)) of 11%, a kinase still bound, per cent of control (PLK3 (human)) of 100% and a kinase still bound, per cent of control (PRKCH (human)) of 100%. It also gave a kinase still bound, per cent of control (CDK3 (human)) of 75%, a kinase still bound, per cent of control (MYO3A (human)) of 60% and a kinase still bound, per cent of control (GAK (human)) of 2.1%. It also gave a kinase still bound, per cent of control (ROCK2 (human)) of 93%, a kinase still bound, per cent of control [4] of 4.2% and a kinase still bound, per cent of control (MAPK6 (human)) of 100%. It also gave a kinase still bound, per cent of control (AAK1 (human)) of 0.75%, a kinase still bound, per cent of control (SIK2 (human)) of 8.2% and a kinase still bound, per cent of control (CDC2L2 (human)) of 100%. The kinase still bound, per cent of control (IRAK3 (human)) was 26%, the kinase still bound, per cent of control (CDK2 (human)) was 14% and the kinase still bound, per cent of control (RIPK2 (human)) was 69%. It also gave a kinase still bound, per cent of control (MAPKAPK5 (human)) of 100%, a kinase still bound, per cent of control (PHKG2 (human)) of 5.6% and a kinase still bound, per cent of control (IKBKE (human)) of 29%.
In the case of COc1ccc(CNC(=O)Nc2ncc([N+](=O)[O-])s2)cc1, the kinase still bound, per cent of control (PLK2 (human)) is reported as 100%, the kinase still bound, per cent of control (CDC42BPG (human)) is reported as 100% and the kinase still bound, per cent of control [1] is reported as 100%. The kinase still bound, per cent of control (RIOK1 (human)) was 100%, the kinase still bound, per cent of control (IGF1R (human)) was 100% and the kinase still bound, per cent of control (PRKAA1 (human)) was 100%. For the same molecule, the kinase still bound, per cent of control (DCLK3 (human)) was 66%, the kinase still bound, per cent of control (LATS2 (human)) was 100% and the kinase still bound, per cent of control (BRSK2 (human)) was 100%. For the same molecule, the kinase still bound, per cent of control [2] was 49%, the kinase still bound, per cent of control (CAMKK1 (human)) was 93% and the kinase still bound, per cent of control (TBK1 (human)) was 100%. It also gave a kinase still bound, per cent of control (GRK7 (human)) of 100%, a kinase still bound, per cent of control (BMP2K (human)) of 100% and a kinase still bound, per cent of control (TESK1 (human)) of 100%. It also gave a kinase still bound, per cent of control (MKNK1 (human)) of 100%, a kinase still bound, per cent of control (LCK (human)) of 100% and a kinase still bound, per cent of control (MARK4 (human)) of 100%. The kinase still bound, per cent of control (ACVR1 (human)) was 98%, the kinase still bound, per cent of control [3] was 99% and the kinase still bound, per cent of control (MAP2K2 (human)) was 100%. It also gave a kinase still bound, per cent of control (MST1R (human)) of 100%, a kinase still bound, per cent of control (AKT2 (human)) of 99% and a kinase still bound, per cent of control (PKMYT1 (human)) of 53%. For the same molecule, the kinase still bound, per cent of control (ITK (human)) was 95%, the kinase still bound, per cent of control (PLK3 (human)) was 100% and the kinase still bound, per cent of control (PRKCH (human)) was 100%. The kinase still bound, per cent of control (CDK3 (human)) was 68%, the kinase still bound, per cent of control (MYO3A (human)) was 100% and the kinase still bound, per cent of control (GAK (human)) was 98%. The kinase still bound, per cent of control (ROCK2 (human)) was 100%, the kinase still bound, per cent of control [4] was 100% and the kinase still bound, per cent of control (MAPK6 (human)) was 100%. For the same molecule, the kinase still bound, per cent of control (AAK1 (human)) was 100%, the kinase still bound, per cent of control (SIK2 (human)) was 80% and the kinase still bound, per cent of control (CDC2L2 (human)) was 100%. It also gave a kinase still bound, per cent of control (IRAK3 (human)) of 100%, a kinase still bound, per cent of control (CDK2 (human)) of 74% and a kinase still bound, per cent of control (RIPK2 (human)) of 95%. For the same molecule, the kinase still bound, per cent of control (MAPKAPK5 (human)) was 100% and the kinase still bound, per cent of control (IKBKE (human)) was 88%.
